Several values for one entry are separate records, joined by “and”; a condition that tells them apart may be missing. Equal entries are not always repeated.
Columns and labels:
[1] = target: T1, Inhibitor of nuclear factor kappa-B kinase subunit epsilon (Homo sapiens) (UniProt Q14164); conditions: at 1 µM
T1 sequence (whole entry): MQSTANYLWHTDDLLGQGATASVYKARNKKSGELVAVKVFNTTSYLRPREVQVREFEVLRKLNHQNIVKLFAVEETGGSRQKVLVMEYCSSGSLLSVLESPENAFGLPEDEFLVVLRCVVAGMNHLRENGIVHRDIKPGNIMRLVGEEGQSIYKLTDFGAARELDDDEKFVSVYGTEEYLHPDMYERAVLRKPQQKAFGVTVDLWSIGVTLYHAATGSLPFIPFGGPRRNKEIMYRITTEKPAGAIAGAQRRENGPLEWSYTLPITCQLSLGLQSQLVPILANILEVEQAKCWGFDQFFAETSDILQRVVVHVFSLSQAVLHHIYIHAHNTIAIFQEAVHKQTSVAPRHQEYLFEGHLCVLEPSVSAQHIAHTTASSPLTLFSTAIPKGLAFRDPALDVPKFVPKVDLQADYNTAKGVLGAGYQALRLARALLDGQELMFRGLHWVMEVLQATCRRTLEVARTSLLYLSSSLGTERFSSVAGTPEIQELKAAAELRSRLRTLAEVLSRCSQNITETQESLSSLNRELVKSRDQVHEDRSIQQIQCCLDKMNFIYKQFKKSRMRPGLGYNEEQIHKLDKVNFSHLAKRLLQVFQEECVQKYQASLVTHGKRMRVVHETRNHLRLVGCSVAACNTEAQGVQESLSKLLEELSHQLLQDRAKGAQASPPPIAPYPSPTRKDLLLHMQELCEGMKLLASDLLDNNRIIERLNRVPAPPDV

[2] = target: T2, Serine/threonine-protein kinase TBK1 (Homo sapiens) (UniProt Q9UHD2); conditions: at 1 µM
T2 sequence (whole entry): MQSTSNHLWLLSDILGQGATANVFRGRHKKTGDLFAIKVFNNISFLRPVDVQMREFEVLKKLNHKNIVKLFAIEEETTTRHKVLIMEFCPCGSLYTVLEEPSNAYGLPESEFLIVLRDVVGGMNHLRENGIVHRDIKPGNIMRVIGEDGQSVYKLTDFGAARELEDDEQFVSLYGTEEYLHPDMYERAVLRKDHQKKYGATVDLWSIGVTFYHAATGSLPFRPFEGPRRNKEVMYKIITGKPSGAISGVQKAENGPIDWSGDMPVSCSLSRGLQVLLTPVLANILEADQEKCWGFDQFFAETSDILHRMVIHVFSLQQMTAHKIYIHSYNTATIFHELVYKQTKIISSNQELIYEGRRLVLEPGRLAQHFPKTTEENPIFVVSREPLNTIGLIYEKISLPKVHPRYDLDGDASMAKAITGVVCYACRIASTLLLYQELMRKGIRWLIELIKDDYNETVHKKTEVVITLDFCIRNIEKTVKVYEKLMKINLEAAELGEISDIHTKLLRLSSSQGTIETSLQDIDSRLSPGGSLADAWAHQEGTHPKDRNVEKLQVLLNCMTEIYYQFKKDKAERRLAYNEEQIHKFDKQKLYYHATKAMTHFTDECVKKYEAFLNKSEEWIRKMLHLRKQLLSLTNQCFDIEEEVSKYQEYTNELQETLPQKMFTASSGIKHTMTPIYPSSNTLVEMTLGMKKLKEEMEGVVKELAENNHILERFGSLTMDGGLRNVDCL

inhibition [1]	inhibition [2]	Structure (SMILES)
1% and 2%	26% and 31%	O=C(O[C@H]1CN[C@H](C#Cc2cc3ncnc(Nc4ccc5c(cnn5Cc5ccccc5)c4)c3s2)C1)N1CCOCC1
0%	-2% and 1%	CS(=O)(=O)CCNCc1nc(-c2ccc3ncnc(Nc4ccc(OCc5cccc(C(F)(F)F)c5)cc4)c3c2)cs1
2%	-3% and 1%	Nc1nccc(-c2c(-c3ccc(F)cc3)nn3cc(C(F)(F)F)ccc23)n1
13% and 11%	38% and 42%	COc1cc(C=NNc2ncnc3c2cnn3-c2ccccc2)ccc1O
8% and 6%	7% and 5%	Nc1nc(-c2ccc3c(c2)C(=Cc2cc(Br)c(O)c(Br)c2)C(=O)N3)cs1
-1%	-1% and -2%	CS(=O)(=O)CCNCc1ccc(-c2ccc3ncnc(Nc4ccc(OCc5ccccc5)cc4)c3c2)o1
0% and 1%	-4% and -1%	CCn1cc(-c2ccnc3[nH]ccc23)c(-c2cccc(NC(=O)Nc3ccc(OCc4ccccc4)cc3)c2)n1
11% and 21%	8%	Nc1nonc1-c1nc2cnccc2n1C1CC1
-3% and -4%	-8% and -4%	CCn1c(-c2nonc2N)nc2c(N3CCCC3)nccc21
31%	4% and 1%	CCn1c(-c2nonc2N)nc2cnc(Oc3cccc(NC(=O)c4ccc(N(C)C)cc4)c3)cc21
5% and 3%	29% and 25%	NS(=O)(=O)c1ccc(N/N=C2\C(=O)Nc3cccc(CCc4ccncc4)c32)cc1
2% and 0%	7% and 2%	COc1cc(N2CCN(C(C)C)CC2)ccc1Nc1nc(Nc2cccc3ncccc23)c2cc[nH]c2n1
2% and 1%	8% and 6%	CCN1CCC(CC(=O)Nc2n[nH]c3nc(-c4cccs4)c(Br)cc23)CC1
3% and 1%	1% and 6%	Cc1cc(O)cc(C)c1/C=C/c1cncc(C(=O)N(C)C)c1
2% and 1%	21% and 4%	NC(=O)c1sc(-n2cnc3ccc(C(F)(F)F)cc32)cc1OCc1ccccc1Br
0% and 2%	7% and 8%	CN(C)C(=O)O[C@H]1CN[C@H](C#Cc2cc3ncnc(Nc4ccc(OCc5cccc(F)c5)c(Cl)c4)c3s2)C1
15% and 11%	18% and 19%	CC(C)c1ccc(Nc2nccc(-c3cnn4ncccc34)n2)cc1
2% and 1%	0% and 2%	COC(=O)Nc1nc2ccc(Oc3ccc(NC(=O)Nc4cccc(Cl)c4)cc3)cc2[nH]1
77% and 76%	87% and 88%	CC(C)(CO)CNC(=O)c1ccc2c(c1)/C(=N/Nc1ccc(S(N)(=O)=O)cc1)C(=O)N2
27%	42% and 41%	NS(=O)(=O)c1ccc(N/N=C2\C(=O)Nc3ccc(C(=O)NCCCn4ccnc4)cc32)cc1
